Assay: xn = mol fraction of the nth substance listed
Details: 101.33 kPa, Liquid, Vibrating tube method

NCCO [2-aminoethan-1-ol] + CO
mass density [kg/m3]
Details | 318.15 K | 323.15 K | 328.15 K | 333.15 K | 338.15 K | 343.15 K | 348.15 K | 353.15 K
x1 = 0.012 | – | 768.02 | 763.16 | 758.24 | – | – | – | –
x1 = 0.031 | – | 776.31 | 771.48 | 766.6 | – | – | – | –
x1 = 0.05 | – | 784.19 | 779.4 | 774.56 | 769.67 | 764.72 | 759.71 | 754.62
x1 = 0.1 | – | 804.01 | 799.31 | 794.56 | 789.76 | 784.91 | 780 | 775.02
x1 = 0.15 | – | 822.17 | 817.54 | 812.87 | 808.15 | 803.39 | 798.56 | 793.68
x1 = 0.2002 | – | 839.11 | 834.54 | 829.94 | 825.28 | 820.58 | 815.83 | 811.02
x1 = 0.2501 | – | 854.48 | 849.96 | 845.4 | 840.8 | 836.17 | 831.49 | 826.76
x1 = 0.2974 | 872.55 | 868.11 | 863.65 | 859.14 | 854.6 | 850 | 845.36 | 840.69
x1 = 0.3502 | 886.63 | 882.25 | 877.83 | 873.37 | 868.88 | 864.35 | 859.77 | 855.14
x1 = 0.4001 | 898.67 | 894.33 | 889.95 | 885.53 | 881.08 | 876.6 | 872.07 | 867.5
x1 = 0.4427 | 908.45 | 904.14 | 899.79 | 895.41 | 890.99 | 886.55 | 882.06 | 877.53
x1 = 0.4502 | 910.28 | 905.97 | 901.63 | 897.26 | 892.86 | 888.42 | 883.94 | 879.42
x1 = 0.5002 | 920.74 | 916.46 | 912.15 | 907.81 | 903.44 | 899.04 | 894.6 | 890.11
x1 = 0.5501 | 930.55 | 926.3 | 922.03 | 917.72 | 913.38 | 909.01 | 904.62 | 900.18
x1 = 0.6001 | 939.84 | 935.62 | 931.37 | 927.1 | 922.8 | 918.47 | 914.1 | 909.7
x1 = 0.6501 | 948.51 | 944.31 | 940.1 | 935.85 | 931.59 | 927.29 | 922.96 | 918.6
x1 = 0.7005 | 956.89 | 952.72 | 948.53 | 944.32 | 940.08 | 935.81 | 931.52 | 927.19
x1 = 0.7479 | 963.92 | 959.78 | 955.62 | 951.43 | 947.22 | 942.98 | 938.72 | 934.42
x1 = 0.8002 | 971.82 | 967.71 | 963.57 | 959.42 | 955.24 | 951.03 | 946.8 | 942.54
x1 = 0.8502 | 978.32 | 974.23 | 970.12 | 965.99 | 961.84 | 957.66 | 953.46 | 949.23
x1 = 0.8967 | 984.55 | 980.48 | 976.39 | 972.29 | 968.16 | 964.01 | 959.83 | 955.62
x1 = 0.9501 | 990.85 | 986.81 | 982.75 | 978.67 | 974.57 | 970.45 | 966.3 | 962.12
